PubChem BioAssay (NCI)
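48-hour exposure; five concentrations; linearly interpolated endpoints. GI50 marks 50% less growth. At the TGI there is no net growth.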

Columns and labels:
Assay in all cases: NCI tumour cell line growth inhibition, 48 h
NCI-H23 lung = tested on: NCI-H23 lung
SK-MEL-28 melanoma = tested on: SK-MEL-28 melanoma
DU-145 prostate = tested on: DU-145 prostate
CCRF-CEM leukemia = tested on: CCRF-CEM leukemia
SF-295 CNS = tested on: SF-295 CNS
TK-10 renal = tested on: TK-10 renal
SW-620 colon = tested on: SW-620 colon
BT-549 breast = tested on: BT-549 breast
MOLT-4 leukemia = tested on: MOLT-4 leukemia
UACC-257 melanoma = tested on: UACC-257 melanoma

| SMILES | TGI (NCI-H23 lung) [µM] | TGI (SK-MEL-28 melanoma) [µM] | TGI (DU-145 prostate) [µM] | TGI (CCRF-CEM leukemia) [µM] | TGI (SF-295 CNS) [µM] | TGI (TK-10 renal) [µM] | TGI (SW-620 colon) [µM] | TGI (BT-549 breast) [µM] | TGI (MOLT-4 leukemia) [µM] | GI50 (NCI-H23 lung) [µM] | GI50 (SK-MEL-28 melanoma) [µM] | GI50 (DU-145 prostate) [µM] | GI50 (CCRF-CEM leukemia) [µM] | GI50 (SF-295 CNS) [µM] | GI50 (TK-10 renal) [µM] | GI50 (SW-620 colon) [µM] | GI50 (BT-549 breast) [µM] | GI50 (MOLT-4 leukemia) [µM] | TGI (UACC-257 melanoma) [µM] | GI50 (UACC-257 melanoma) [µM] |
| --- | --- | --- | --- | --- | --- | --- | --- | --- | --- | --- | --- | --- | --- | --- | --- | --- | --- | --- | --- | --- |
| CNC1C(O)C(OC2C(N)CC(N)C(OC3OC(C(C)O)C(O)C(O)C3N)C2O)OCC1(C)O (stereo not given) | > 100 | > 100 | > 100 | > 100 | > 100 | > 100 | > 100 | > 100 | > 100 | – | – | – | – | – | – | – | – | – | – | – |
| Nc1nnc(Cn2c(-c3ccccc3)nc3ccc(Br)cc3c2=O)s1 | > 100 | > 100 | > 100 | 67.6 | > 100 | 83.9 | > 100 | > 100 | 48.8 | 40.8 | > 100 | 85.4 | 16.3 | 26.2 | 32 | 36.1 | 58.3 | 17.7 | – | – |
| CC/C(C)=C1\OC(=O)C(C)C(O)C(Cc2cccnc2)NC(=O)C(NC(=O)c2ncccc2O)C(C)OC1=O (stereo not given) | > 100 | > 100 | > 100 | – | > 100 | > 100 | > 100 | > 100 | > 100 | – | – | – | – | – | – | – | – | – | > 100 | – |
| CC(=O)OC1CC2C(C)(C)C(=O)C=CC2(C)C2CCC3(C)C(c4ccoc4)OC(=O)C4OC43C12C (stereo not given) | 41.5 | > 100 | 11 | – | > 100 | > 100 | > 100 | 44.4 | 76.4 | – | – | – | – | – | – | – | – | – | > 100 | – |
| COc1cc(-c2cc(=O)c3cc(C)c(C)c(C(=O)O)c3o2)cc(OC)c1OC | > 100 | > 100 | – | > 100 | > 100 | > 100 | > 100 | – | > 100 | – | – | – | – | – | – | – | – | – | > 100 | – |
| COc1cccc2[nH]c(-c3ccccn3)nc12 | > 100 | > 100 | > 100 | – | > 100 | > 100 | > 100 | > 100 | – | – | – | – | – | – | – | – | – | – | > 100 | – |
| CCCCCCCCCCCCN(O)C(=O)c1ccccc1 | 52.2 | > 100 | – | > 100 | > 100 | > 100 | > 100 | – | > 100 | – | – | – | – | – | – | – | – | – | 49.1 | – |
| O=C1C2c3[nH]c4ccccc4c3[C@@H]3CCCCC3C2C(=O)N1c1ccccc1 (stereo not given in full) | 39.2 | 33 | – | 80.1 | 43.2 | 68.7 | 38.8 | – | 62.9 | – | – | – | – | – | – | – | – | – | – | – |
| O=C(Oc1ccccc1Cl)c1ccccc1Nc1ccnc(C(F)(F)F)c1 | 0.248 | – | 13.3 | – | 1.09 | 4.61 | 20 | 20.6 | – | 0.0428 | – | 3.42 | 0.0324 | 0.27 | 0.415 | 0.15 | 0.635 | 0.258 | – | – |
| Cc1ccc2[nH]c3c(ncc4[nH]c5ccccc5c43)c2c1 | > 10 | 32 | – | 35.9 | 30.9 | 37.6 | 26.7 | – | 35.2 | – | – | – | – | – | – | – | – | – | 33.2 | – |
| CCC(C(=O)[O-])C(=O)[O-].CCC(C(=O)[O-])C(=O)[O-].N.N.NCCCCCCN.[Pt+4].[Pt+4] | 24.5 | 14.6 | – | 2.87 | 50 | 15.1 | 1.71 | – | 2.94 | 9.84 | 6.58 | – | 1.1 | 23.2 | 8.23 | 0.9 | – | 1.18 | 14 | 6.14 |
| COc1ccc(-c2c(-c3cc(OC)c4c(c3)OCO4)noc2N)cc1 | 20.9 | 33.4 | 1.97 | 24.9 | 23.8 | 49.7 | > 100 | 38.7 | 17.5 | 0.0329 | 0.872 | 0.041 | 0.0361 | 0.0197 | 10.4 | 0.0289 | 0.568 | 0.0723 | – | – |
| CC1=C(c2cc(C(=O)Nc3cccc(C(F)(F)F)c3)ncn2)Sc2ccccc2N1 | > 100 | > 100 | – | > 100 | > 100 | > 100 | > 100 | – | > 100 | – | – | – | – | – | – | – | – | – | > 100 | – |
| O=C(NNC(=O)c1cc(/C=C/c2cccc([N+](=O)[O-])c2)[nH]c(=S)n1)Nc1ccc(Cl)cc1 | > 100 | > 100 | – | 51.2 | > 100 | > 100 | – | – | 72 | – | – | – | – | – | – | – | – | – | > 100 | – |
| COC12CC(=O)C(C(C)=O)=C(O)C1(C)c1c(OC(C)=O)c(C)c(O)c(C(C)=O)c1O2 (stereo not given) | 31.3 | > 100 | – | 66.8 | > 100 | 69.7 | > 100 | – | > 100 | – | – | – | – | – | – | – | – | – | 91.4 | – |
| O=C(CC(=O)C1CCOC1=O)C(=O)Nc1ccc(Cl)cc1Cl (stereo not given) | > 100 | > 100 | – | > 100 | > 100 | > 100 | > 100 | – | – | – | – | – | – | – | – | – | – | – | > 100 | – |
| O=C([O-])c1ccc(C(=O)[O-])cc1.O=C([O-])c1ccc(C(=O)[O-])cc1.[Mo+2].[Mo+2] | > 100 | > 100 | – | > 100 | > 100 | > 100 | > 100 | – | > 100 | > 100 | > 100 | – | > 100 | > 100 | > 100 | > 100 | – | > 100 | > 100 | > 100 |
| CSc1ccc(/C=C/c2ccnc3ccccc23)cc1 | 28.4 | 32.6 | 32.7 | 78.3 | 27.5 | 26.8 | 27 | – | 66.9 | – | – | – | – | – | – | – | – | – | 32.9 | – |
| N#CC1(C=O)c2ccccc2C=CN1C(=O)c1ccccc1 (stereo not given) | > 100 | > 100 | – | 78.4 | – | > 100 | 19.3 | – | 44.9 | – | – | – | – | – | – | – | – | – | > 100 | – |
| CCOC(=O)NC(=O)c1cn(CCN2CCN(C(=O)CCCCCCCCCCNc3ncnc4nc[nH]c34)CC2)c(=O)[nH]c1=O | > 100 | > 100 | – | > 100 | > 100 | > 100 | > 100 | – | > 100 | – | – | – | – | – | – | – | – | – | > 100 | – |
| CN(C)c1n/c(=N/c2ncn[nH]2)ss1 | > 100 | > 100 | – | > 100 | > 100 | > 100 | > 100 | – | > 100 | – | – | – | – | – | – | – | – | – | > 100 | – |
